US20060167062A1, “Enema preparation” (priority 2003, published 2006)

Columns and labels:
rat model of colitis [1] = assay: Rat model of colitis (TNBS-induced), incidence of diarrhea, oral administration; assay type: in vivo
Procedure: A rat model of colitis was prepared in accordance with the method by Morris et al. (Morris GP et al., Hapten-induced model of chronic inflammation and ulceration in the rat colon. Gasteroenterology, 96: 795-803, 1989). Specifically, the rats were fasted for approximately 24 hr and anesthetized with ether. A Teflon catheter (registered trade mark) was inserted into the lumen of the colon via the anus. The tip of the catheter was advanced to 8 cm from the anus, and 0.25 ml of TNBS solution (final concentration of 60 mg/mL in 50% ethanol) was injected into the colon. Rats were held in a vertical position for 30 seconds after TNBS injection (Day-0).
On the Day-B, the rats were anesthetized with ether, and sacrificed by exsanguination. The colon, from the end of the cecum to the anus, was excised, opened by a longitudinal incision, and the feces were macroscopically assessed at the excision of colons. When feces were not solid, it ws judged as diarrhea. Rats with no feces in the colon were excluded from diarrhea evaluation.

rat model of colitis [2] = assay: Rat model of colitis (TNBS-induced), incidence of diarrhea, enema (intra-rectal) administration; assay type: in vivo; conditions: for incidence of diarrhea: vehicle control 73.9%
Procedure: A rat model of colitis was prepared in accordance with the method by Morris et al. (Morris GP et al., Hapten-induced model of chronic inflammation and ulceration in the rat colon. Gasteroenterology, 96: 795-803, 1989). Specifically, the rats were fasted for approximately 24 hr and anesthetized with ether. A Teflon catheter (registered trade mark) was inserted into the lumen of the colon via the anus. The tip of the catheter was advanced to 8 cm from the anus, and 0.25 ml of TNBS solution (final concentration of 60 mg/mL in 50% ethanol) was injected into the colon. Rats were held in a vertical position for 30 seconds after TNBS injection (Day-0). One day after an injection of TNBS (Day-1), rats were randomly allocated to the four groups described below based on body weight using a stratified random sampling method. The groups were as follows: The pharmacologically active ingredient and its vehicle were delivered at 8 cm orad to the anal verge of conscious rats through a Teflon catheter (registered trade mark) inserted into the lumen of the colon via the anus. They were administered once daily in the morning for 7 consecutive days from Day-1. On the Day-B, the rats were anesthetized with ether, and sacrificed by exsanguination. The colon, from the end of the cecum to the anus, was excised, opened by a longitudinal incision, and the feces were macroscopically assessed at the excision of colons. When feces were not solid, it ws judged as diarrhea. Rats with no feces in the colon were excluded from diarrhea evaluation. The results of the incidence of diarrhea were expressed as the proportion of rats with diarrhea in each group. Statistical analysis was performed between the vehicle control group (Group A) and the groups administered with the pharmacologically active ingredient (Group B to D) using Fisher's exact test (two-sided) to which Bonferroni correction, which takes multiplicity into consideration, was applied. Statistical significance is defined as p<0.05.

CCOc1ccc(-c2nc(-c3cccc(C(=O)O)n3)cs2)cc1OCC [pharmacologically active ingredient, 6-[2-(3,4-diethoxyphenyl)thiazol-4-yl]pyridine-2-carboxylic acid]
incidence of diarrhea with oral administration (rat model of colitis [1]; 1 mg/kg/day): significantly effective
incidence of diarrhea with oral administration (rat model of colitis [1]; lower than 1 mg/kg/day): no significant decrease
incidence of diarrhea (rat model of colitis [2]; Group B, 0.1 mg/kg/day enema once daily for 7 consecutive days from Day-1): 33.3%
incidence of diarrhea (rat model of colitis [2]; Group C, 0.3 mg/kg/day enema once daily for 7 consecutive days from Day-1): 20.0%
incidence of diarrhea (rat model of colitis [2]; Group D, 1 mg/kg/day enema once daily for 7 consecutive days from Day-1): 20.0%
incidence of diarrhea compared with the vehicle control group (rat model of colitis [2]; Groups B to D, 0.1 to 1 mg/kg/day enema, Fisher's exact test with Bonferroni correction, p<0.05): suppressed significantly
amount with significant disorder-suppressing effect, intra-rectal relative to oral administration (rat model of colitis [2]; intra-rectal versus oral, rat model of colitis): one tenth
